Experimental data as given in patent US20240158446A1, “CYCLIC COMPOUND HAVING SELECTIVE INHIBITORY ACTION ON KRAS OVER HRAS AND NRAS” (CHUGAI SEIYAKU KABUSHIKI KAISHA, priority 2021, published 2024).
Where a SMILES comes first, the peptide text is derived from it. Bridges are numbered along the chain shown (N, C = ends). [ ]: non-standard residue; d: D form. The star is where a group is joined. hPhe(3-Cl-4-CF3) = N[C@@H](CCc1ccc(C(F)(F)F)c(Cl)c1)C(=O)O; NPrPhe(4-CF3) = CCCN[C@@H](Cc1ccc(C(F)(F)F)cc1)C(=O)O; NMeGly(cPent) = CN[C@H](C(=O)O)C1CCCC1; NMeD = CN[C@@H](CC(=O)O)C(=O)O; NMeL = CN[C@@H](CC(C)C)C(=O)O; Morpholide = C1CN(*)CCO1; NMeA = CN[C@@H](C)C(=O)O; Ac4c = NC1(C(=O)O)CCC1; Sar = CNCC(=O)O

How the values were obtained:
[1] = molecular target: GDP-bound KRAS wild-type protein (Homo sapiens, UniProt P01116); assay: Binding to KRAS by surface plasmon resonance (SPR), Single Cycle Kinetics; conditions: SPR, Single Cycle Kinetics, GDP-bound KRAS wild-type protein; read-out: KRAS KD
[2] = molecular target: GDP-bound NRAS wild-type protein (Homo sapiens, UniProt P01111); assay: Binding to NRAS by surface plasmon resonance (SPR), Single Cycle Kinetics; conditions: ratio of KD for GDP-bound NRAS wild-type protein to KD for KRAS, SPR
[3] = molecular target: GDP-bound HRAS wild-type protein (Homo sapiens, UniProt P01112); assay: Binding to HRAS by surface plasmon resonance (SPR), Single Cycle Kinetics; conditions: ratio of KD for GDP-bound HRAS wild-type protein to KD for KRAS, SPR
[4] = test system: human lung cancer strain NCI-H441; assay: cells; conditions: NCI-H441, 96 h, read-out: NCI-H441 IC50 (nM), NCI-H441 cell proliferation, 4 days, CellTiter-Glo;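 further: cell proliferation inhibition after four days measured by CellTiter-Glo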

Sequence of GDP-bound NRAS wild-type protein (P01111 whole entry): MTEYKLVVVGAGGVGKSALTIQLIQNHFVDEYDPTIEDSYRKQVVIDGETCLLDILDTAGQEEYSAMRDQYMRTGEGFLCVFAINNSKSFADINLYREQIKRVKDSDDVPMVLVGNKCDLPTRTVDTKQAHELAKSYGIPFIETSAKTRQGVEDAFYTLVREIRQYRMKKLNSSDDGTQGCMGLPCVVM
Sequence of GDP-bound KRAS wild-type protein (P01116 whole entry): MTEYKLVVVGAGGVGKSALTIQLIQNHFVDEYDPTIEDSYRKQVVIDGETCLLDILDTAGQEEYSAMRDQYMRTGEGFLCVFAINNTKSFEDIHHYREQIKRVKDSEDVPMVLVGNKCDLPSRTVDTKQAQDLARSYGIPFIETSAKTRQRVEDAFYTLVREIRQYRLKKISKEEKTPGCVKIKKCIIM
Sequence of GDP-bound HRAS wild-type protein (P01112 whole entry): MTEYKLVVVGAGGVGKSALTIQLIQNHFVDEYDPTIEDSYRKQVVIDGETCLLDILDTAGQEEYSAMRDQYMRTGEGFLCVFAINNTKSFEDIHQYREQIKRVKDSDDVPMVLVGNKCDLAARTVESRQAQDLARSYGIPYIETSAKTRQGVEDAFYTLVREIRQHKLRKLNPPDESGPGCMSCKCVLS

Row | Structure (SMILES) | Kd [1] [nM] | NRAS/KRAS (KD ratio) [2] | HRAS/KRAS (KD ratio) [3] | IC50 [4] [nM]
1 | CC[C@H](C)[C@@H]1NC(=O)[C@H](CC(C)C)N(C)C(=O)C[C@@H](C(=O)N(C)CC)N(C)C(=O)[C@H](C2CCCC2)N(C)C(=O)C2(CC(C)(C)C2)NC(=O)[C@@H]2C[C@@H](C)CN2C(=O)[C@H](CCc2ccc(C(F)(F)F)c(OC)c2)NC(=O)CN(C)C(=O)[C@H](Cc2ccc(C)cc2)N2CC/C=C\C[C@@H](C2=O)N(C)C(=O)CN(C)C1=O [PP1909] | 0.34 | A (a compound having 10 or more and less than 20 is denoted as A) | B (a compound having 3 or more and less than 10 is denoted as B) | 15.3
2 | CC[C@H](C)[C@@H]1NC(=O)[C@H](CC(F)F)N(C)C(=O)C[C@@H](C(=O)N(C)CC)N(C)C(=O)[C@H](C2CCCC2)N(C)C(=O)C2(CC(C)(C)C2)NC(=O)[C@@H]2C[C@H](C)CN2C(=O)[C@H](CCc2ccc(C(F)(F)F)c(Cl)c2)NC(=O)CN(C)C(=O)[C@H](Cc2ccc(C)cc2)N2CC/C=C\C[C@@H](C2=O)N(C)C(=O)CN(C)C1=O [PP1911] | 0.21 | A (a compound having 10 or more and less than 20 is denoted as A) | A (a compound having 10 or more and less than 20 is denoted as A) | 11.7
3 | CCO[C@@H]1C[C@H]2C(=O)NC3(CC(C)(C)C3)C(=O)N(CC)[C@@H](C3CCCC3)C(=O)N(C)[C@H](C(=O)N(C)C)CC(=O)N(C)[C@@H](CC)C(=O)N[C@@H]([C@@H](C)CC)C(=O)N(C)CC(=O)N(C)[C@H]3C/C=C\CCN(C3=O)[C@@H](Cc3ccc(C(F)(F)F)cc3)C(=O)N(C)CC(=O)N[C@@H](CCc3cc(F)c(C(F)(F)F)c(F)c3)C(=O)N2C1 [PP1913] | 0.37 | A (a compound having 10 or more and less than 20 is denoted as A) | A (a compound having 10 or more and less than 20 is denoted as A) | 44
4 | CCO[C@@H]1C[C@H]2C(=O)NC3(CC(C)(C)C3)C(=O)N(C)[C@@H](C3CCCC3)C(=O)N(C)[C@H](C(=O)N(C)C)CC(=O)N3CCCCC[C@H]3C(=O)N[C@@H]([C@@H](C)CC)C(=O)N(C)CC(=O)N(C)[C@H]3C/C=C\CCN(C3=O)[C@@H](Cc3ccc(C(F)(F)F)cc3)C(=O)N(C)CC(=O)N[C@@H](CCc3cc(F)c(C(F)(F)F)c(F)c3)C(=O)N2C1 [PP1915] | 0.31 | A (a compound having 10 or more and less than 20 is denoted as A) | A (a compound having 10 or more and less than 20 is denoted as A) | 18.5
5 | CCCN1C(=O)CN(C)C(=O)CN(C)C(=O)[C@H]([C@@H](C)CC)NC(=O)[C@H](CC(C)C)N(C)C(=O)C[C@@H](C(=O)N2CCOCC2)N(C)C(=O)[C@H](C2CCCC2)N(C)C(=O)C2(CCC2)NC(=O)[C@H](C)N(C)C(=O)[C@H](CCc2ccc(C(F)(F)F)c(Cl)c2)NC(=O)CN(C)C(=O)[C@@H]1Cc1ccc(C(F)(F)F)cc1 [PP1916] ([NMeL]I[Sar][Sar][NPrPhe(4-CF3)][Sar][hPhe(3-Cl-4-CF3)][NMeA][Ac4c][NMeGly(cPent)][NMeD]-Morpholide; lactam N-11) | 0.49 | B (a compound having 3 or more and less than 10 is denoted as B) | C (A compound having a KD ratio of 0.1 or more and less than 3 is denoted as C) | 16.8
6 | CCCN(C)C(=O)[C@@H]1CC(=O)N(C)[C@@H](CC(C)C)C(=O)N[C@@H]([C@@H](C)OC)C(=O)N(C)CC(=O)N(C)[C@H]2C/C=C\CCN(C2=O)[C@@H](Cc2ccc(C(F)(F)F)cc2)C(=O)N(C)CC(=O)N[C@@H](CCc2cc(F)c(C(F)(F)F)c(F)c2)C(=O)N2C[C@H](OCC)C[C@H]2C(=O)NC2(CC(C)(C)C2)C(=O)N(C)[C@@H](C2CCCC2)C(=O)N1C [PP1917] | 0.29 | A (a compound having 10 or more and less than 20 is denoted as A) | A (a compound having 10 or more and less than 20 is denoted as A) | 22.5
